Values quoted from earlier work, collected in US20090075956A1 (priority 2005, published 2009).
Where a name gives a salt, the structure may show the parent alone.

Question: Which “solubility in organic solvents” value (organic solvents such as ethanol, ether and chloroform) does the source give for O=[N+]([O-])O[C@H]1CO[C@H]2[C@@H]1OC[C@H]2O[N+](=O)[O-] [Diluted isosorbide dinitrate, 1,4,3,6-dianhydro-D-glucitol-2,5-dinitrate] here?
Answer: freely soluble

Question: What about the solubility in water of the same compound?
Answer: sparingly soluble

Question: With NNc1nncc2ccccc12 [Hydralazine hydrochloride, hydralazine hydrochloride] as the compound, how does the solubility in alcohol (alcohol) read?
Answer: slightly soluble

Question: And the solubility in ether (ether)?
Answer: very slightly soluble

Question: And the solubility in water?
Answer: soluble
